Assay results as given in ChEMBL document CHEMBL4732205, “Structure-based optimization identified novel furyl-containing 2,4-diarylaminopyrimidine analogues as ALK/ROS1 dual inhibitors with anti-mutation effects” (Eur J Med Chem, 2021).

Key:
MCF7 = test: Antiproliferative activity against human MCF7 cells assessed as reduction in cell growth incubated for 72 hrs by MTT assay; format: functional, cell-based; conditions: MCF7, 72 h
KARPAS-299 = test: Antiproliferative activity against human KARPAS-299 cells assessed as reduction in cell growth incubated for 72 hrs by MTT assay; format: functional, cell-based; conditions: KARPAS-299, 72 h
NCI-H2228 = test: Antiproliferative activity against human NCI-H2228 cells assessed as reduction in cell growth incubated for 72 hrs by MTT assay; format: functional, cell-based; conditions: NCI-H2228, 72 h
A549 = test: Antiproliferative activity against human A549 cells assessed as reduction in cell growth incubated for 72 hrs by MTT assay; format: functional, cell-based; conditions: A549, 72 h
[1] = biological target: Epidermal growth factor receptor (Homo sapiens, UniProt P00533); test: Inhibition of recombinant human N-terminal GST-tagged EGFR (669 to 1210 residues) expressed in baculovirus expression system using Srctide as substrate incubated for 1 hr by mobility shift assay
Chain of Epidermal growth factor receptor (P00533 whole entry, the tested form may be a part): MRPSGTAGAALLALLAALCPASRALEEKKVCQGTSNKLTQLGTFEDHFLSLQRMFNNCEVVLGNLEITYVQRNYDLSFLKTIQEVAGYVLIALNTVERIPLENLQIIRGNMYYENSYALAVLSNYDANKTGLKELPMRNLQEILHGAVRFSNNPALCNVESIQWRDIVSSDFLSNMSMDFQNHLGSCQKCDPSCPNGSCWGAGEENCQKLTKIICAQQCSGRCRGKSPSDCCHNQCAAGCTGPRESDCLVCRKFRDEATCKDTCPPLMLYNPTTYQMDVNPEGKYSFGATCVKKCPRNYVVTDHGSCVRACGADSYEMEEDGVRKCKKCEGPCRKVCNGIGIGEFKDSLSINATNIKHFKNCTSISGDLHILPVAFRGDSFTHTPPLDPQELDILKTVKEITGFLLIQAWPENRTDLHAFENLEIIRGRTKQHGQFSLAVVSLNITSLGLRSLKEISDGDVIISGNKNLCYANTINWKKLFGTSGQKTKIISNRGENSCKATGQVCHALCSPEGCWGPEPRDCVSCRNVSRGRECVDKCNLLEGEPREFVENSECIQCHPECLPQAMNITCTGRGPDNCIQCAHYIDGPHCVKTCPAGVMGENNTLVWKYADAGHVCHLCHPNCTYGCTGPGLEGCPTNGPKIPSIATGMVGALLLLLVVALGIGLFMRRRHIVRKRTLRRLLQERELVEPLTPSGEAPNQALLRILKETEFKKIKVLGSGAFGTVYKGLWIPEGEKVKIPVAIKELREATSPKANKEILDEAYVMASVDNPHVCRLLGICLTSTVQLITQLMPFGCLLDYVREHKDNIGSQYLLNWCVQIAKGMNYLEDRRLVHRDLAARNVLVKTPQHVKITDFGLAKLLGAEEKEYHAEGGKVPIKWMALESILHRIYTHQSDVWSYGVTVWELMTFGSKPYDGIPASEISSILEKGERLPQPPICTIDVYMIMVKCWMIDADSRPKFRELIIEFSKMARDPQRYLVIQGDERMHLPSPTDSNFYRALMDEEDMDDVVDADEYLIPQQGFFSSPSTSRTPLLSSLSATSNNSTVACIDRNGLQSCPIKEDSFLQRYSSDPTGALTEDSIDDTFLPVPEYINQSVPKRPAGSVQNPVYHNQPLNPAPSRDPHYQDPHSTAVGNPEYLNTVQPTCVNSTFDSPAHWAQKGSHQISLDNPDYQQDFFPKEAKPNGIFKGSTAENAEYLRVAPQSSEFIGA

[2] = biological target: ALK tyrosine kinase receptor (Homo sapiens, UniProt Q9UM73); test: Inhibition of recombinant human N-terminal GST-tagged ALK (1058 to 1620 residues) expressed in baculovirus expression system using Srctide as substrate incubated for 1 hr by mobility shift assay
[3] = biological target: ALK tyrosine kinase receptor (Homo sapiens, UniProt Q9UM73, L1196M); test: Inhibition of recombinant human N-terminal GST-tagged ALK L1196M mutant (1058 to 1620 residues) expressed in baculovirus expression system using Srctide as substrate incubated for 1 hr by mobility shift assay
[4] = biological target: Proto-oncogene tyrosine-protein kinase ROS (Homo sapiens, UniProt P08922); test: Inhibition of recombinant human N-terminal GST-tagged ROS1 (1883 to 2347 residues) expressed in baculovirus expression system using IRS1 as substrate incubated for 1 hr by mobility shift assay
Chain of Proto-oncogene tyrosine-protein kinase ROS (P08922 whole entry, the tested form may be a part): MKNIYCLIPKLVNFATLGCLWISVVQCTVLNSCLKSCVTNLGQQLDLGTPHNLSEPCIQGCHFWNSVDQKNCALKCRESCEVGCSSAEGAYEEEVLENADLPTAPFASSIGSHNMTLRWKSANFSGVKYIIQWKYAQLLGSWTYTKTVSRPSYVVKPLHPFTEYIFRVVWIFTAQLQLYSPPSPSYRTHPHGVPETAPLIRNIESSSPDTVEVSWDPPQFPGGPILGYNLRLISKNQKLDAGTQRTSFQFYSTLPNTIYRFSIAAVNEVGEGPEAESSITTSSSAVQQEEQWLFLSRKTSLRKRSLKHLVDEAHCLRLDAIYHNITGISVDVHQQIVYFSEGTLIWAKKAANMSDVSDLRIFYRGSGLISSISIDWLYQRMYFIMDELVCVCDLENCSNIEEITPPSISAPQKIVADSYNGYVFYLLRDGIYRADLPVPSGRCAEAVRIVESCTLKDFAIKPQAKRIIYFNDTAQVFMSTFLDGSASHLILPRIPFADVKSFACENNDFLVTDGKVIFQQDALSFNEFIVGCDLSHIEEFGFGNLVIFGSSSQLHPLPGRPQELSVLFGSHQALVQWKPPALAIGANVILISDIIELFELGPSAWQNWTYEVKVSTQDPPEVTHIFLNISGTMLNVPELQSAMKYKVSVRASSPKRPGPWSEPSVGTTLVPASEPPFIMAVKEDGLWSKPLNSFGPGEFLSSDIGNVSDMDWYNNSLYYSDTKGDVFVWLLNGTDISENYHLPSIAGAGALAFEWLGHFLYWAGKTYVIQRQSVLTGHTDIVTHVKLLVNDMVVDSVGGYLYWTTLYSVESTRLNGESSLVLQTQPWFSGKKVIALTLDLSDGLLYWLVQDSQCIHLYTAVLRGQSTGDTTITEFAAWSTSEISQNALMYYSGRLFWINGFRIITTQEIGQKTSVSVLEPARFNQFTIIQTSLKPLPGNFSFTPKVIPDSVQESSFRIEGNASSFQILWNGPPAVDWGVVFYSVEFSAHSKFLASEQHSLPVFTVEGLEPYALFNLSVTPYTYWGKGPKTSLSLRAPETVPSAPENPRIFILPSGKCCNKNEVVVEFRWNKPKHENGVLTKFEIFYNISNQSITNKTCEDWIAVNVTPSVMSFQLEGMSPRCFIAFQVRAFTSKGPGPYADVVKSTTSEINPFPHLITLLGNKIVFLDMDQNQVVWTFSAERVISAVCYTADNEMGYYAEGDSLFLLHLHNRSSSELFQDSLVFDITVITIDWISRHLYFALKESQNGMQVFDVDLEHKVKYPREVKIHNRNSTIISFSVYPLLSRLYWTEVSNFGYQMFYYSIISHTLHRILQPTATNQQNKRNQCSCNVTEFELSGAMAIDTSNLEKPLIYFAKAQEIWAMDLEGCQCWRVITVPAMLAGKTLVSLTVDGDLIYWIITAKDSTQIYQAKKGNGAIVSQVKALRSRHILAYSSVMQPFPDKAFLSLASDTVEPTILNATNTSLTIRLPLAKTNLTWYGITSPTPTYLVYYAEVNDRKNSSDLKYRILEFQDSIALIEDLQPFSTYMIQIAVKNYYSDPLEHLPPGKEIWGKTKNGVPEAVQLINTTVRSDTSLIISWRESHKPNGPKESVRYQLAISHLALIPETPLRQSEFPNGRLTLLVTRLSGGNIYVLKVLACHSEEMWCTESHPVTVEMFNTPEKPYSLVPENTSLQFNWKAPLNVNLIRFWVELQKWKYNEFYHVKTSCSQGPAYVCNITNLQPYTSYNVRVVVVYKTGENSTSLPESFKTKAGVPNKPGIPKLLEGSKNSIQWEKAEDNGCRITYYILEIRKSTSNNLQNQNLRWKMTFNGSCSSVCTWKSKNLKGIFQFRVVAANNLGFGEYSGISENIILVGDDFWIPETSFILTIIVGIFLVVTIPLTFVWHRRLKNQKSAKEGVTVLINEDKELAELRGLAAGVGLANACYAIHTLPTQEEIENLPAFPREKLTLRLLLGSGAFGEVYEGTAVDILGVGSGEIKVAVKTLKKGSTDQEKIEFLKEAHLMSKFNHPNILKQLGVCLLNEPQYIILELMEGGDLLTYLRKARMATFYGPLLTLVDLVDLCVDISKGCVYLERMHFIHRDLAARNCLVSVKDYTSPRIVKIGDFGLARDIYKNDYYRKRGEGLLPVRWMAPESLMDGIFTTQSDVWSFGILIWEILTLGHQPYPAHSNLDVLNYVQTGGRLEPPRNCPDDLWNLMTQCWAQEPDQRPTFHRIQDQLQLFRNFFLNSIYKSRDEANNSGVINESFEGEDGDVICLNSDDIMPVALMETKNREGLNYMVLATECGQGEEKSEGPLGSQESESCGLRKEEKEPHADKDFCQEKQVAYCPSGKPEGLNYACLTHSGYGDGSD

[5] = biological target: ALK tyrosine kinase receptor (Homo sapiens, UniProt Q9UM73, G1202R); test: Inhibition of recombinant human N-terminal GST-tagged ALK G1202R mutant (1058 to 1620 residues) expressed in baculovirus expression system using Srctide as substrate incubated for 1 hr by mobility shift assay
Chain of ALK tyrosine kinase receptor (Homo sapiens, UniProt Q9UM73, G1202R) (Q9UM73 19-1620 G1202R limits assumed): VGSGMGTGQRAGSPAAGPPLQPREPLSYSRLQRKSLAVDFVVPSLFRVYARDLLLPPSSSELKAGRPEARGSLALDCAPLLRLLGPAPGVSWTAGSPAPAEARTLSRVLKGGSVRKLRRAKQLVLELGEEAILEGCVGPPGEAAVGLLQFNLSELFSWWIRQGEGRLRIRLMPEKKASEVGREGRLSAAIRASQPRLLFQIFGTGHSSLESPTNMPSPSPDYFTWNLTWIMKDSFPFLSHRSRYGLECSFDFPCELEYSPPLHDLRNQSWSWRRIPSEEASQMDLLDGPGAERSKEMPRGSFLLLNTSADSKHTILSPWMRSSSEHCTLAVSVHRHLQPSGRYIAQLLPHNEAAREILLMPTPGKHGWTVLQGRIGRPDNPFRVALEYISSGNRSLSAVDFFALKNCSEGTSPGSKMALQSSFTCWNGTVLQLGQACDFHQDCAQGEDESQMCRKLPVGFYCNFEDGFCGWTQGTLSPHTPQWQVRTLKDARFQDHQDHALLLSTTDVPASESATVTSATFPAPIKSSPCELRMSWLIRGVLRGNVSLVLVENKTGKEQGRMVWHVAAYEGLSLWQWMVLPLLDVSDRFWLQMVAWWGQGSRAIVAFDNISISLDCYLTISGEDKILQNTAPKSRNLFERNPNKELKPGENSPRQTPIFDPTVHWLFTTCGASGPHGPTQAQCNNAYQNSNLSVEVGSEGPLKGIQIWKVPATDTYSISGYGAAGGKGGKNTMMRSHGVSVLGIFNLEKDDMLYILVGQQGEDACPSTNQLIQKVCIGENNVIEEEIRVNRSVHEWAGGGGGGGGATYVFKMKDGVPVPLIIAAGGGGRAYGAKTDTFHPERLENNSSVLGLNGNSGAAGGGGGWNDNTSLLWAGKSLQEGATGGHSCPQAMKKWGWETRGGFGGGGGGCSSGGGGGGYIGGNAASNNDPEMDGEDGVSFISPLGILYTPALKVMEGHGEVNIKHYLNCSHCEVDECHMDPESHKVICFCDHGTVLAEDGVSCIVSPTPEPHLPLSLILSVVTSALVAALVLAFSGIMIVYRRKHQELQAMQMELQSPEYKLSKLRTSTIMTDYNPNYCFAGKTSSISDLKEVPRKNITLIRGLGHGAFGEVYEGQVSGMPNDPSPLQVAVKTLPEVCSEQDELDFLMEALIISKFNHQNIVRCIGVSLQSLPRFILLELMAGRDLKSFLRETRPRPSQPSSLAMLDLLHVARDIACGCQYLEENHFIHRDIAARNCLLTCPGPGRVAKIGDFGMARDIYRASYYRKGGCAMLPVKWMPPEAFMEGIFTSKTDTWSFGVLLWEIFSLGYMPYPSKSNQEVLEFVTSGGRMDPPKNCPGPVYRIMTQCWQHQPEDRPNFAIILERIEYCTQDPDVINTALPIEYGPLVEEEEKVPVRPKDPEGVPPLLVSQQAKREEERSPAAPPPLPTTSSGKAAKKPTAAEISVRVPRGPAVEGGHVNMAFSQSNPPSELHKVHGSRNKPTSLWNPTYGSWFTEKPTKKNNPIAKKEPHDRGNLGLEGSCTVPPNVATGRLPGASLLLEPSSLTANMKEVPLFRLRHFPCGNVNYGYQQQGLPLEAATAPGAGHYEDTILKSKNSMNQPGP

Row | Compound | IC50 (MCF7) [nM] | IC50 (KARPAS-299) [nM] | IC50 (NCI-H2228) [nM] | IC50 (A549) [nM] | IC50 [1] [nM] | IC50 [2] [nM] | IC50 [3] [nM] | IC50 [4] [nM] | IC50 [5] [nM]
1 | COc1cc(NCc2ccc(CN3CCC(C)CC3)o2)ccc1Nc1ncc(Cl)c(Nc2ccccc2NS(C)(=O)=O)n1 | > 10000 | 620 | 530 | > 10000 |  |  |  |  | 
2 | COc1cc(NCc2ccc(CN3CCCC3)o2)ccc1Nc1ncc(Cl)c(Nc2ccccc2NS(C)(=O)=O)n1 | > 10000 | 350 | 420 | > 10000 |  |  |  |  | 
3 | COc1cc(NCc2ccc(CN3CCSCC3)o2)ccc1Nc1ncc(Cl)c(Nc2ccccc2NS(C)(=O)=O)n1 | > 10000 | 1020 | 1600 | > 10000 |  |  |  |  | 
4 | COc1cc(SCc2ccc(CN3CCN(CCO)CC3)o2)ccc1Nc1ncc(Cl)c(Nc2ccccc2NS(C)(=O)=O)n1 | > 10000 | 510 | 820 | > 10000 |  |  |  |  | 
5 | Cc1cc(Nc2ncc(Cl)c(Nc3ccccc3S(=O)(=O)C(C)C)n2)c(OC(C)C)cc1C1CCNCC1 [CERITINIB] | > 10000 | 80 |  |  |  |  |  |  | 
6 | COc1cc(SCc2ccc(CN3CCSCC3)o2)ccc1Nc1ncc(Cl)c(Nc2ccccc2NS(C)(=O)=O)n1 | > 10000 | 660 | 860 | > 10000 |  |  |  |  | 
7 | COc1cc(SCc2ccco2)ccc1Nc1ncc(Cl)c(Nc2ccccc2NS(C)(=O)=O)n1 | > 10000 | 820 | 1360 | > 10000 |  |  |  |  | 
8 | COc1cc(SCc2ccc(CN3CCCCC3)o2)ccc1Nc1ncc(Cl)c(Nc2ccccc2NS(C)(=O)=O)n1 | > 10000 | 350 | 500 | 3920 |  |  |  |  | 
9 | COc1cc(S(=O)(=O)Cc2ccco2)ccc1Nc1ncc(Cl)c(Nc2ccccc2NS(C)(=O)=O)n1 | > 10000 | 1230 | 1700 | > 10000 |  |  |  |  | 
10 | CCN1CCN(Cc2ccc(CSc3ccc(Nc4ncc(Cl)c(Nc5ccccc5NS(C)(=O)=O)n4)c(OC)c3)o2)CC1 | > 10000 | 280 | 670 | > 10000 |  |  |  |  | 
11 | COc1cc(S(=O)(=O)Cc2ccco2)ccc1Nc1ncc(Cl)c(Nc2ccccc2NC(C)=O)n1 | > 10000 | 2410 | 3790 | > 10000 |  |  |  |  | 
12 | COc1cc(NCc2ccc(CN3CCCCC3)o2)ccc1Nc1ncc(Cl)c(Nc2ccccc2NS(C)(=O)=O)n1 | > 10000 | 280 | 350 | 2360 |  |  |  |  | 
13 | COc1cc(NCc2ccc(CN(C)C)o2)ccc1Nc1ncc(Cl)c(Nc2ccccc2NS(C)(=O)=O)n1 | > 10000 | 200 | 520 | 3040 |  |  |  |  | 
14 | COc1cc(SCc2ccc(CN3CCCC3)o2)ccc1Nc1ncc(Cl)c(Nc2ccccc2NS(C)(=O)=O)n1 | 2810 | 70 | 140 | > 10000 | > 1000 | 3.4 | 2.8 | 4.2 | 3.9
15 | COc1cc(OCc2ccco2)ccc1Nc1ncc(Cl)c(Nc2ccccc2NS(C)(=O)=O)n1 | > 10000 |  | 1590 | > 10000 |  |  |  |  | 
